Values joined by “and” are separate entries in the source; they are usually repeats but may differ in a detail not shown here. Equal values may be shown once.
Conditions: for mass density: Vibrating tube method; for vapor or sublimation pressure: Closed cell (Static) method

CCCC [butane]
Fluid (supercritical or subcritical phases)
Conditions	mass density [kg/m3]
240 K, 486 kPa	635.96
240 K, 1007.3 kPa	636.47
240 K, 1510.1 kPa	636.95
240 K, 2000.1 kPa	637.42
240 K, 2570.2 kPa	637.97
240 K, 3029.5 kPa	638.41
240 K, 3512.2 kPa	638.87
240 K, 4001.2 kPa	639.35
240 K, 4487.8 kPa	639.8
240 K, 5029 kPa	640.31
240 K, 5540.8 kPa	640.78
240 K, 5990.8 kPa	641.21
240 K, 6517.3 kPa	641.67
240 K, 7115.6 kPa	642.22
260 K, 481 kPa	615.74
260 K, 998.4 kPa	616.36
260 K, 1521.8 kPa	616.98
260 K, 2020.3 kPa	617.55
260 K, 2488.3 kPa	618.09
260 K, 3039.4 kPa	618.72
260 K, 3506.9 kPa	619.26
260 K, 3997 kPa	619.8
260 K, 4494.6 kPa	620.36
260 K, 5004.2 kPa	620.91
260 K, 5503.1 kPa	621.46
260 K, 6003.3 kPa	622.01
260 K, 6478.7 kPa	622.54
260 K, 6989.2 kPa	623.08
280 K, 144.7 kPa	593.92
280 K, 173.2 kPa	593.97
280 K, 493.9 kPa	594.44
280 K, 992 kPa	595.16
280 K, 1472.7 kPa	595.86
280 K, 1987.6 kPa	596.59
280 K, 2465.8 kPa	597.26
280 K, 2985.5 kPa	597.98
280 K, 3516.7 kPa	598.71
280 K, 3974.9 kPa	599.34
280 K, 4513.6 kPa	600.07
280 K, 4975 kPa	600.69
280 K, 5428.9 kPa	601.3
280 K, 5929.2 kPa	601.98
280 K, 6499.1 kPa	602.71
280 K, 7020 kPa	603.37
300 K, 268.9 kPa	571.14
300 K, 315.1 kPa	571.23
300 K, 493.4 kPa	571.55
300 K, 992.8 kPa	572.45
300 K, 1491.3 kPa	573.35
300 K, 2013.4 kPa	574.26
300 K, 2499.1 kPa	575.12
300 K, 2964 kPa	575.92
300 K, 3499.9 kPa	576.83
300 K, 3992.8 kPa	577.66
300 K, 4525.1 kPa	578.55
300 K, 4990.4 kPa	579.31
300 K, 5543.6 kPa	580.23
300 K, 5951.1 kPa	580.88
300 K, 6459.3 kPa	581.65
300 K, 7089.3 kPa	582.62
320 K, 515.9 kPa	546.74
320 K, 1002.9 kPa	547.89
320 K, 1502.7 kPa	549.06
320 K, 2011.8 kPa	550.22
320 K, 2517.1 kPa	551.36
320 K, 3010.6 kPa	552.45
320 K, 3523.1 kPa	553.55
320 K, 4015.6 kPa	554.6
320 K, 4017.2 kPa	554.6
320 K, 4513.3 kPa	555.64
320 K, 4992.8 kPa	556.63
320 K, 5473.8 kPa	557.6
320 K, 6031 kPa	558.74
320 K, 6510.5 kPa	559.67
320 K, 6982.1 kPa	560.62
340 K, 761.5 kPa	519.87
340 K, 791.7 kPa	519.97
340 K, 989.9 kPa	520.64
340 K, 1519.5 kPa	522.33
340 K, 1975.7 kPa	523.74
340 K, 2514.4 kPa	525.36
340 K, 3012.7 kPa	526.82
340 K, 3504.4 kPa	528.23
340 K, 4034.7 kPa	529.7
340 K, 4437.7 kPa	530.79
340 K, 4964.4 kPa	532.19
340 K, 5471 kPa	533.51
340 K, 5975.4 kPa	534.78
340 K, 6451.2 kPa	535.97
340 K, 7014.5 kPa	537.36
360 K, 1181.7 kPa	490.31
360 K, 1215.8 kPa	490.48
360 K, 1507.5 kPa	491.85
360 K, 2006.4 kPa	494.12
360 K, 2493.7 kPa	496.23
360 K, 2995.1 kPa	498.32
360 K, 3489.7 kPa	500.29
360 K, 3993.1 kPa	502.23
360 K, 4488.7 kPa	504.06
360 K, 4984.1 kPa	505.83
360 K, 5504.8 kPa	507.65
360 K, 5979.4 kPa	509.32
360 K, 6486.7 kPa	510.96
360 K, 7012.4 kPa	512.64
380 K, 1845.2 kPa	455.88
380 K, 1925.7 kPa	456.51
380 K, 2007.2 kPa	457.14
380 K, 2503.7 kPa	460.77
380 K, 3010.6 kPa	464.17
380 K, 3502 kPa	467.25
380 K, 3999.9 kPa	470.18
380 K, 4508.9 kPa	473
380 K, 5015.7 kPa	475.66
380 K, 5511.1 kPa	478.12
380 K, 6013.8 kPa	480.51
380 K, 6534.9 kPa	482.88
380 K, 6978 kPa	484.82

Liquid
Conditions	mass density	vapor or sublimation pressure
240 K	634.72 kg/m3 and 634.79 kg/m3	26.2 kPa and 23.9 kPa
260 K	615.48 kg/m3	59.9 kPa
280 K	593.89 kg/m3	131.5 kPa
300 K	571.03 kg/m3	256.4 kPa
320 K	546.56 kg/m3	454.8 kPa
340 K	520.07 kg/m3 and 519.84 kg/m3	750.5 kPa and 751 kPa
360 K	490.27 kg/m3 and 490.24 kg/m3	1168.5 kPa and 1168.1 kPa
380 K	455 kg/m3	1737.4 kPa

— the NIST ThermoML archive (doi:10.1021/je049672l)
